Data taken from ChEMBL document CHEMBL3600320, “An oxidative coupling product of luteolin with cysteine ester and its enhanced inhibitory activity for xanthine oxidase” (Bioorg Med Chem Lett, 2015).
pIC50: −log10 of the molar value.

Experiments:
[1] = molecular target: T1, Xanthine dehydrogenase/oxidase (Homo sapiens, UniProt P47989); test: Inhibition of xanthine oxidase (unknown origin) using xanthine as substrate after 10 mins by HPLC method
[2] = molecular target: T1, Xanthine dehydrogenase/oxidase; test: Inhibition of xanthine oxidase (unknown origin) using xanthine as substrate at 33 to 100 umol/L after 10 mins by HPLC method relative to control

T1 sequence (P47989 whole entry): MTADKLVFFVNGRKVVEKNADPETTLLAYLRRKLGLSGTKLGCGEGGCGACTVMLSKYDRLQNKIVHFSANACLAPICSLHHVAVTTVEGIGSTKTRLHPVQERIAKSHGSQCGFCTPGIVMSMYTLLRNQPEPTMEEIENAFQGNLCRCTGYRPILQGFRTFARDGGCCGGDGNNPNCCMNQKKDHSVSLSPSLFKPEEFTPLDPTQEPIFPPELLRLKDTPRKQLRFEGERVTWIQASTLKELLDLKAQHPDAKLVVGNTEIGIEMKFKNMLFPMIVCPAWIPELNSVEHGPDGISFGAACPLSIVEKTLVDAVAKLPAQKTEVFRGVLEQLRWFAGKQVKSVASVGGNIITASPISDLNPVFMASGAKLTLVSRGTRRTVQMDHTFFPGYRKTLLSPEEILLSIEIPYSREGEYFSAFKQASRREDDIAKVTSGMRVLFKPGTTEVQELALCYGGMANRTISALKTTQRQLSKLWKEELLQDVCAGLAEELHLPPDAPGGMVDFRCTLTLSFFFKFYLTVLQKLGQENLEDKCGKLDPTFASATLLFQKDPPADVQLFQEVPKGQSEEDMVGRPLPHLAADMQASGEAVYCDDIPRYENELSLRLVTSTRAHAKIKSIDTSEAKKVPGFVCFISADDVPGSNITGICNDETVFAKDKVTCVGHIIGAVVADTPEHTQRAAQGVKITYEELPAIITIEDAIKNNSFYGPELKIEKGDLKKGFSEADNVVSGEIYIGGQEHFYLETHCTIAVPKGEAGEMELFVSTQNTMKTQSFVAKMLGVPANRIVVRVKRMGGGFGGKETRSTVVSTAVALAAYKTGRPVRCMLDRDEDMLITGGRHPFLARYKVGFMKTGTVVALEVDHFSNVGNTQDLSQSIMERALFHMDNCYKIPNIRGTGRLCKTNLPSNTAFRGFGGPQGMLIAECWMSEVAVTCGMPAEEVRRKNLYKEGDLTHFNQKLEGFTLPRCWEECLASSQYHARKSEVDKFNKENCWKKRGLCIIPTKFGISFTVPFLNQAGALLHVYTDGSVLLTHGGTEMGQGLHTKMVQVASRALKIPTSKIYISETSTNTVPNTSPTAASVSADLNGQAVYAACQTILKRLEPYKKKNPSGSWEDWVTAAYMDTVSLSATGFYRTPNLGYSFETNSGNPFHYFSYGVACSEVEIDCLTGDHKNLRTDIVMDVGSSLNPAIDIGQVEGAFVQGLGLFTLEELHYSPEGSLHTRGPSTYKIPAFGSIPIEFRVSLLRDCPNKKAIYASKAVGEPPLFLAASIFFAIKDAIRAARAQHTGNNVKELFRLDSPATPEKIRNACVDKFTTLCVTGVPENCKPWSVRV

Compound	inhibition (INH) ([1]; human, 10 min)	pIC50 [1]	inhibition (INH) [2] [%]
CCOC(=O)C1=Nc2c(O)ccc(-c3cc(=O)c4c(O)cc(O)cc4o3)c2SC1	Dose-dependent effect	5.77	–
O=c1c(O)c(-c2ccc(O)cc2)oc2cc(O)cc(O)c12 [KAEMPFEROL]	–	–	> 50
O=c1cc(-c2ccc(O)c(O)c2)oc2cc(O)cc(O)c12 [LUTEOLIN]	–	5.11	> 50
O=c1c(O)c(-c2cc(O)c(O)c(O)c2)oc2cc(O)cc(O)c12 [MYRICETIN]	–	–	> 50
O=c1c(O)c(-c2ccc(O)c(O)c2)oc2cc(O)cc(O)c12 [QUERCETIN]	–	–	> 50
